Patent US20250215029A1 (Recludix Pharma, Inc., priority 2022, published 2025)
Like-named read-outs stand apart in the source and are kept apart here.

Assays:
pY705-STAT3 in PBMC = biological target: T1, pY705-STAT3 in PBMC (Homo sapiens, UniProt P40763); test: MSD-pSTAT-PBMC Assay (pSTAT3, IL-6 stimulated); format: cell-based; settings: PBMC, compound 3 hrs, then 10 ng/mL IL-6 for 10 min
T1 construct: Cryopreserved Peripheral Blood Mononuclear Cells (PBMC) are from AllCells; host or cells: cryopreserved PBMC
Outline: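 Cells are preincubated with compound for 3 hrs, then stimulated for 10 min, IL-4 at 1 ng/mL driving STAT6 phosphorylation and IL-6 at 10 ng/mL driving STAT3. Phospho-STAT in lysates is quantified by MSD immunoassay, and IC50 is fitted after subtracting unstimulated wells.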

pY641-STAT6 in PBMC = biological target: T2, pY641-STAT6 in PBMC (Homo sapiens, UniProt P42226); test: MSD-pSTAT-PBMC Assay (pSTAT6, IL-4 stimulated); format: cell-based; settings: compound 3 hrs, then 1 ng/mL IL-4 for 10 min
T2 construct: Cryopreserved Peripheral Blood Mononuclear Cells (PBMC) are from AllCells; host or cells: cryopreserved PBMC
T2 sequence (P42226 1-847): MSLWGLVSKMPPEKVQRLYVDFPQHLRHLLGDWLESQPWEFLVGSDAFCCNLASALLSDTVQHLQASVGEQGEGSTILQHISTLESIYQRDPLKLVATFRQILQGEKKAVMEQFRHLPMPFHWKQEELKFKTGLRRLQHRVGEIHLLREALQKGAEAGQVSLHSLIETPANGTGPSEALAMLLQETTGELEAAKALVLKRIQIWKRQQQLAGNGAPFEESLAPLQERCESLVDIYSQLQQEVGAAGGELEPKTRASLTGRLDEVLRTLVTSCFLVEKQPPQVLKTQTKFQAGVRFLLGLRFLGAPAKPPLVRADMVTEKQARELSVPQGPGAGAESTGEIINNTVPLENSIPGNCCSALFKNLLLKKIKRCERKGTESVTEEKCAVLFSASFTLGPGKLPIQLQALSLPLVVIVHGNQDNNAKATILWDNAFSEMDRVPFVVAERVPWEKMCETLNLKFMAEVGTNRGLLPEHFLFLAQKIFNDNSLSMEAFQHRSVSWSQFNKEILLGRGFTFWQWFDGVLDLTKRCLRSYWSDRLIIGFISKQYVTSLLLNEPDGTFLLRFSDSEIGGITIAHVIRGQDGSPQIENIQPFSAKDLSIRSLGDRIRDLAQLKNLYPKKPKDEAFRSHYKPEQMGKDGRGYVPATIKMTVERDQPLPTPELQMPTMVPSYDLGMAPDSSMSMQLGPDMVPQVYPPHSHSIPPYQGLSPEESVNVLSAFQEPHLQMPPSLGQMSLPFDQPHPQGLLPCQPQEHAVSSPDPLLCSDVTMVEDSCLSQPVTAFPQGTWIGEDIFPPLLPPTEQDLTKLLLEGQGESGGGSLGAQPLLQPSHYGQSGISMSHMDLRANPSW
Outline: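 MSD electrochemiluminescence read-out: total STAT captured, probed with anti-pY641-STAT6 or anti-pY705-STAT3. Human PBMC, 3 h compound pretreatment, 10 min stimulation (IL-4 1 ng/mL or IL-6 10 ng/mL). Unstimulated signal subtracted, DMSO-normalized, variable-slope IC50.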

[1] = PBMC, Table 1114, read-out: pSTAT6

T1 sequence (P40763 whole entry): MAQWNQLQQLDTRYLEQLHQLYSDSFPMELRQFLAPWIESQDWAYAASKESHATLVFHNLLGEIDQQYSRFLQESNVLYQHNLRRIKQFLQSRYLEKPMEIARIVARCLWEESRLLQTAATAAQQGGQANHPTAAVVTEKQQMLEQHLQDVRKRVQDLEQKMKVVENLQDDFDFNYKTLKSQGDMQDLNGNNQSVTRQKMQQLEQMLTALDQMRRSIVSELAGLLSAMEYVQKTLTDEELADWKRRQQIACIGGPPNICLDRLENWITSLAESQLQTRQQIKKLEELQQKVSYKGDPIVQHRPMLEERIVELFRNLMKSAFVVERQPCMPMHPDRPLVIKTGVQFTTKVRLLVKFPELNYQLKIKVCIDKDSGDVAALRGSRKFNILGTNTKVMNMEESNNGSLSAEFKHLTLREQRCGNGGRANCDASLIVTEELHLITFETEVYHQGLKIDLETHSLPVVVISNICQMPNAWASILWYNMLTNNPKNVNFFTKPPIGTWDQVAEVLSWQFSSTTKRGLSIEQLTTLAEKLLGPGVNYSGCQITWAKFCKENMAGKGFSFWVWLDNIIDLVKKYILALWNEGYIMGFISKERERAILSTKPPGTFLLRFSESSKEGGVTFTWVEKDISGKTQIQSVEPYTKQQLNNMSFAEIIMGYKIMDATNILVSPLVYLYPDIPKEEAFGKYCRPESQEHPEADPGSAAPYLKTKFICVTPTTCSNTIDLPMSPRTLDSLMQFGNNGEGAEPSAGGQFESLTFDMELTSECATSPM

Compound	IC50 (pY705-STAT3 in PBMC; Table 1114, read-out: pSTAT3) [µM]	IC50 (pY641-STAT6 in PBMC; [1]) [µM]	IC50 (pY705-STAT3 in PBMC; Table 115, read-out: STAT3) [µM]	IC50 (pY641-STAT6 in PBMC; STAT6, PBMC, Table 115) [µM]	IC50 (pY641-STAT6 in PBMC; PBMC, Table 115, read-out: STAT6) [µM]
CC(C)(C)C(=O)OCOP(=O)(OCOC(=O)C(C)(C)C)C(F)(F)c1ccc2sc(C(=O)N[C@@]3(C)CCCCC4CC[C@@H](C(=O)N5C[C@H](c6ccccc6)[C@@H](C#N)C5)N4C3=O)cc2c1 (relative stereo) [Compound 151, ((((2-(((3S,6S,10aS)-3-(rel-trans)-3-cyano-4-phenylpyrrolidine-1-carbonyl)-6-methyl-5-oxodecahydro-pyrrolo[1,2-a]azocin-6-yl)carbamoyl)benzo[b]thiophen-5-yl)difluoromethyl)phosphoryl)bis (oxy))bis (methylene) bis(2,2-dimethylpropanoate)]	0.1 to 1	0.1 to 1			
CC(C)CC(=O)SCCOP(=O)(OCCSC(=O)CC(C)C)C(F)(F)c1ccc2sc(C(=O)N[C@H]3CCCC(C)[C@H]4CC[C@@H](C(=O)N5C[C@H](c6cc[nH]c(=O)c6)[C@@H](C#N)C5)N4C3=O)cc2c1 (single isomer, unassigned) [Compound 162, S,S′-(((((2-(((3S,6S,10aR)-3-((3R,4S or 3S,4R)-3-cyano-4-(2-oxo-1,2-dihydropyridin-4-yl)pyrrolidine-1-carbonyl)-10-methyl-5-oxodeca-hydropyrrolo[1,2-a]azocin-6-yl)carbamoyl)benzo [b]thiophen-5-yl)difluoromethyl)phosphoryl)bis(oxy))bis(ethane-2,1-diyl)) bis(3-methylbutane thioate)]	0.1 to 1	0.1 to 1			
CCCCOC(=O)[C@H](C)NP(=O)(Oc1cccc2ccccc12)C(F)(F)c1ccc2ccc(C(=O)N[C@H]3CCCC[C@H]4CC[C@@H](C(=O)N5CC(c6ccccc6)CC56CC6)N4C3=O)cc2c1 (stereo partly drawn) [Compound 406, butyl ((difluoro(7-(((3S,6S,10aS)-5-oxo-3-(6-phenyl-4-azaspiro[2.4]heptane-4-carbonyl)decahydropyrrolo[1,2-a]azocin-6-yl)carbamoyl)naphthalen-2-yl)methyl) (naphthalen-1-yloxy)phosphoryl)-L-alaninate]			> 3	1 to 3	
CCCOC(=O)[C@H](C)NP(=O)(Cc1ccc2sc(C(=O)N[C@H]3CCC[C@H]4CC[C@@H](C(=O)N5CC(c6cnccc6OC)C5)N4C3=O)cc2c1)Oc1ccccc1 (stereo partly drawn) [Compound 255, propyl (((2-(((3S,6S,9aS)-3-(3-(4-methoxypyridin-3-yl)azetidine-1-carbonyl)-5-oxooctahydro-1H-pyrrolo[1,2-a]azepin-6-yl)carbamoyl)benzo [b]thiophen-5-yl)methyl)(phenoxy)phosphoryl)-L-alaninate]			< 0.1	> 3	
CCOC(=O)[C@H](C)NP(=O)(Cc1ccc2ccc(C(=O)N[C@H]3CCCC[C@H]4CC[C@@H](C(=O)N5CC(c6ccccc6)CC56CC6)N4C3=O)cc2c1)Oc1ccccc1 (stereo partly drawn) [Compound 396, ethyl (((7-(((3S,6S,10aS)-5-oxo-3-(6-phenyl-4-azaspiro[2.4]heptane-4-carbonyl)decahydropyrrolo[1,2-a]azocin-6-yl)carbamoyl)naphthalen-2-yl)methyl)(phenoxy)phosphoryl)-L-alaninate]			> 3	1 to 3	
CC(C)(C)C(=O)OCOP(=O)(OCOC(=O)C(C)(C)C)C(F)(F)c1ccc2sc(C(=O)N[C@H]3CCC[C@H]4CCC[C@@H](C(=O)N5CC(n6ccnc6)C5)N4C3=O)cc2c1 [Compound 173, ((((2-(((4S,7S,10aS)-4-(3-(1H-imidazol-1-yl)azetidine-1-carbonyl)-6-oxodecahydropyrido [1,2-a]azepin-7-yl)carbamoyl)benzo[b]thiophen-5-yl)difluoromethyl)phosphoryl)bis(oxy)) bis(methylene) bis(2,2-dimethylpropanoate)]	0.1 to 1	> 3			
CC(C)CC(=O)SCCCCOP(=O)(OCCCCSC(=O)CC(C)C)C(F)(F)c1ccc2sc(C(=O)N[C@H]3CCCC[C@H]4CC[C@@H](C(=O)N5CC(C#N)C(c6ccccc6)C5)N4C3=O)cc2c1 (single isomer, unassigned) [Compound 153, S,S′-(((((2-(((3S,6S,10aS)-3-((3S,4R or 3R,4S)-3-cyano-4-phenylpyrrolidine-1-carbonyl)-5-oxodecahydro-pyrrolo[1,2-a]azocin-6-yl)carbamoyl)benzo[b]thiophen-5-yl)difluoromethyl)phosphoryl)bis (oxy))bis(butane-4,1-diyl)) bis(3-methylbutane thioate)]	> 3	> 3			
CC(C)(C)C(=O)OCOP(=O)(OCOC(=O)C(C)(C)C)C(F)(F)c1ccc2sc(C(=O)N[C@H]3CCCC[C@H]4CC[C@@H](C(=O)N5CC6(CN(C(=O)Cc7ccccc7)C6)C5)N4C3=O)cc2c1 [Compound 191, (((difluoro(2-(((3S,6S,10aS)-5-oxo-3-(6-(2-phenylacetyl)-2,6-diazaspiro[3. 3]heptane-2-carbonyl)decahydro-pyrrolo [1,2-a]azocin-6-yl)carbamoyl)benzo[b]thiophen-5-yl)methyl)phosphoryl)bis (oxy))bis (methylene) bis(2,2-dimethyl-propanoate)]	< 0.1	0.1 to 1			
CCCOC(=O)[C@H](C)NP(=O)(Oc1ccccc1)C(F)c1ccc2sc(C(=O)N[C@H]3CCC[C@H]4CC[C@@H](C(=O)N5CC(c6cnccc6F)C5)N4C3=O)cc2c1 (stereo partly drawn) [Compound 943, propyl ((fluoro(2-(((3S,6S,9aS)-3-(3-(4-fluoropyridin-3-yl)azetidine-1-carbonyl)-5-oxooctahydro-1H-pyrrolo[1,2-a]azepin-6-yl)carbamoyl)benzo [b]thiophen-5-yl)methyl)(phenoxy)phosphoryl)-L-alaninate]			< 0.1	> 3	
CC(C)(C)C(=O)OCOP(=O)(OCOC(=O)C(C)(C)C)C(F)(F)c1ccc2sc(C(=O)N[C@H]3C[C@@H](O)CC[C@H]4CC[C@@H](C(=O)N5C[C@H](c6ccccc6)[C@@H](C#N)C5)N4C3=O)cc2c1 (single isomer, unassigned) [Compound 185, ((((2-(((3S,6S,8S, 10aR)-3-((3R,4S or 3S,4R)-3-cyano-4-phenyl-pyrrolidine-1-carbonyl)-8-hydroxy-5-oxodeca-hydropyrrolo [1,2-a]azocin-6-yl)carbamoyl)benzo[b]thiophen-5-yl)difluoro-methyl)phos-phoryl)bis(oxy)) bis(methylene) bis(2,2-dimethyl-propanoate)]	0.1 to 1	< 0.1			
N#C[C@H]1CN(C(=O)[C@@H]2CC[C@@H]3CCCC[C@H](NC(=O)c4ccc5ccc(C(F)(F)P(=O)(OCCSC(=O)CC6COC6)OCCSC(=O)CC6COC6)cc5c4)C(=O)N32)C[C@@H]1c1cc[nH]c(=O)c1 (single isomer, unassigned) [Compound 408]			> 3		0.1 to 1
CCCOC(=O)[C@H](C)NP(=O)(Oc1ccccc1)[C@@H](F)c1ccc2sc(C(=O)N[C@H]3CCCC[C@H]4CC[C@@H](C(=O)N5C[C@H](c6ccccc6)[C@@H](C#N)C56CC6)N4C3=O)cc2c1 (stereo partly drawn) [Compound 381, propyl (((R)-(2-(((3S,6S,10aS)-3-((6S,7R)-7-cyano-6-phenyl-4-azaspiro[2.4]heptane-4-carbonyl)-5-oxodecahydropyrrolo [1,2-a]azocin-6-yl)carbamoyl)benzo [b]thiophen-5-yl)fluoromethyl) (phenoxy)phosphoryl)-L-alaninate]			> 3	< 0.1	
CCCOC(=O)[C@H](C)NP(=O)(Cc1ccc2sc(C(=O)N[C@H]3CCCC[C@H]4CC[C@@H](C(=O)N5CCC(c6cccnc6)C5)N4C3=O)cc2c1)Oc1ccccc1 (stereo partly drawn) [Compound 253, propyl (((2-(((3S,6S,10aS)-5-oxo-3-(3-(pyridin-3-yl)pyrrolidine-1-carbonyl)decahydropyrrolo[1,2-a]azocin-6-yl)carbamoyl)benzo [b]thiophen-5-yl)methyl)(phenoxy)phosphoryl)-L-alaninate]			> 3	0.1 to 1	
